Series [1] can be described thus: Properties of respective derivatives (solubility). In kind it is physicochemical.
A further series has as its system rats. Nature of the series: Diuretic effect in rats. The series is classed as in vivo, Wister strain male rats. The note with it: Rattus norvegicus, po, 5 h, urine volume up to 5 hours, % of control; for response vs control in vivo at 20 mg/kg: dosage 20 mg/kg; for response vs control in vivo at 2.5 mg/kg: dosage 2.5 mg/kg; for response vs control in vivo at 5 mg/kg: dosage 5 mg/kg; for response vs control in vivo at 10 mg/kg: dosage 10 mg/kg; for response vs control in vivo at 50 mg/kg: dosage 50 mg/kg. On the procedure:
Wister strain male rats weighing about 200 g were starved overnight and each compound of this invention suspended in 25 ml/kg of physiological saline were administered orally to the 5 animals in each group, and the diuretic effect up to 5 hours after the administration was measured. The diuretic effect is expressed as the average urine volume (%) of the treated group divided by that of the control group.

Series [2] concerns Carrageenin-Induced Foot Edema. Nature of the series: Inhibition for carrageenin-induced foot edema in rats. The series is classed as in vivo, Wister strain male rats. The note with it: 1 hour before carrageenin, paw volume 3 hours after, probit method; for ED30: Rattus norvegicus, po, read-out: ED30 (dosage for 30% inhibition of edema). On the procedure:
10 Wister strain male rats weighing about 120 g were used in each group. Each compound of this invention was suspended in a 5% aqueous arabic gum solution and administered orally to the animals. One hour after the administration, 0.1 ml of a 1% solution of carrageenin in physiological saline as a phlogistic agent was subcutaneously injected into the right hind paw of the rats which had been shaven previously. The volume of the right hind paw was measured before the administration of the phlogistic agent and 3 hours after the administration. The intensity of edema expressed as percent increase in the foot volume was calculated from the […] (1) and the percent inhibition of edema was calculated from the equation (2). [formula]
The effective dosage of each compound for inhibiting edema was expressed as ED30 (mg/kg) by calculating the dosage for 30% inhibition from the percent inhibition of edema according to the probit method.

Series [3] can be described thus: Acute oral toxicity in mice. The note with it: mouse, in vivo, mortality 7 days after administration. Here is the method:
10 ddY Strain male mice weighing about 20 g were used in each group. Each compound of this invention was suspended in a 5% aqueous gum arabic solution and administered orally. The mortality rate (%) was determined from the number of dead animals 7 days after the administration, and the dosage corresponding to 50% mortality was calculated and expressed as LD50 (mg/kg).

For `CC(=O)N1CCC(=NO)c2cc(Br)ccc21` [XIV, 6-Bromo-4-oximino-1-acetyl-1,2,3,4-tetrahydroquinoline], in series [1], the “Solubility in ethanol and dichloromethane” value was “soluble”; the “Solubility in water and hexane” value is given as “Sparingly soluble”. This molecule had a response vs control in vivo at 20 mg/kg in the series with rats of 234%. Besides, the ED30 in series [2] is 182 mg/kg. Besides, the LD50 at 168 h in series [3] was above 5000 mg/kg.
For `CCC(=O)N1CCC(=NO)c2cc(F)ccc21` [Compound XV, 6-Fluoro-4-oximino-1-propionyl-1,2,3,4-tetrahydroquinoline], in series [1], the “Solubility in ethanol and dichloromethane” value is “soluble”; the “Solubility in water and hexane” value is reported as “Sparingly soluble”. Further, in the series with rats, the response vs control in vivo at 2.5 mg/kg is 209%, the response vs control in vivo at 5 mg/kg came out at 347% and the response vs control in vivo at 10 mg/kg was determined as 425%. The ED30 in series [2] amounted to 9.3 mg/kg. The molecule also returned an LD50 at 168 h in series [3] of 3440 mg/kg.
For `CN(C)C(=O)N1CCC(=NO)c2cc(F)ccc21` [XXI, 6-Fluoro-4-oximino-1-dimethylcarbamoyl-1,2,3,4-tetrahydroquinoline], in series [1], the “Solubility in ethanol and dichloromethane” value is listed as “soluble”; the “Solubility in water and hexane” value is “Sparingly soluble”. Also, in the series with rats, the response vs control in vivo at 10 mg/kg was 128% and the response vs control in vivo at 20 mg/kg is 209%. In series [2], the ED30 amounted to 141 mg/kg. Further, the LD50 at 168 h in series [3] is above 5000 mg/kg.
For the molecule `O=C(C=Cc1ccccc1)N1CCC(=NO)c2cc(Br)ccc21` [XVIII, 6-Bromo-4-oximino-1-cinnamoyl-1,2,3,4-tetrahydroquinoline], in series [1], the “Solubility in ethanol and dichloromethane” value is recorded as “soluble”; the “Solubility in water and hexane” value is given as “Sparingly soluble”. Besides, in the series with rats, the response vs control in vivo at 50 mg/kg worked out at 203%. Further, the ED30 in series [2] was determined as 133 mg/kg. The 50% lethal dose (LD50) at 168 h in series [3] was above 5000 mg/kg.
`COC(=O)N1CCC(=NO)c2cc(F)ccc21` [IX, 6-Fluoro-4-oximino-1-methoxycarbonyl-1,2,3,4-tetrahydroquinoline]: in series [1], the “Solubility in ethanol and dichloromethane” value is recorded as “soluble”; the “Solubility in water and hexane” value was “Sparingly soluble”. In the series with rats, the response vs control in vivo at 2.5 mg/kg worked out at 251%, the response vs control in vivo at 5 mg/kg worked out at 309% and the response vs control in vivo at 10 mg/kg turned out to be 408%. Also, in series [2], the ED30 was determined as 22 mg/kg. For the same molecule, the LD50 at 168 h in series [3] was above 5000 mg/kg.
Consider `CC(C)CC(=O)N1CCC(=NO)c2cc(Cl)ccc21` [Compound VI, 6-Chloro-4-oximino-1-isovaleryl-1,2,3,4-tetrahydroquinoline], for which, in series [1], the “Solubility in methanol, acetone and chloroform” value (“Solubility in methanol” below) was “easily soluble”; the “Solubility in water and hexane” value is “Sparingly soluble”. In the series on rats, this molecule gave a response vs control in vivo at 50 mg/kg of 196%. Besides, the ED30 in series [2] is 105 mg/kg. This molecule also came in with an LD50 at 168 h in series [3] above 5000 mg/kg.
As to `CCC(=O)N1CCC(=NO)c2cc(Br)ccc21` [XVI, 6-Bromo-4-oximino-1-propionyl-1,2,3,4-tetrahydroquinoline], in series [1], the “Solubility in ethanol and dichloromethane” value is listed as “soluble”; the “Solubility in water and hexane” value was “Sparingly soluble”. In the series with rats, this molecule gave a response vs control in vivo at 5 mg/kg of 243% and a response vs control in vivo at 10 mg/kg of 380%. In addition, the ED30 in series [2] came out at 16 mg/kg. The LD50 at 168 h in series [3] was 4710 mg/kg.
As for `COC(=O)N1CCC(=NO)c2cc(Br)ccc21` [Compound XI, 6-Bromo-4-oximino-1-methoxycarbonyl-1,2,3,4-tetrahydroquinoline], in series [1], the “Solubility in ethanol and dichloromethane” value is reported as “soluble”; the “Solubility in water and hexane” value is on record as “Sparingly soluble”. The molecule also came in with a response vs control in vivo at 10 mg/kg with rats of 293%. The response vs control in vivo at 0.5 mg/kg in the series on rats (dosage .5 mg/kg (so in the source)) stood at 152%. In addition, in series [2], the ED30 was 83 mg/kg. In series [3], the LD50 at 168 h is above 5000 mg/kg.
On to `CCOC(=O)N1CCC(=NO)c2cc(Cl)ccc21` [Compound XIII, 6-Chloro-4-oximino-1-ethoxycarbonyl-1,2,3,4-tetrahydroquinoline], for which, in series [1], the “Solubility in ethanol and dichloromethane” value is on record as “soluble”; the “Solubility in water and hexane” value is listed as “Sparingly soluble”. In addition, in the series on rats, the response vs control in vivo at 10 mg/kg was found to be 204% and the response vs control in vivo at 20 mg/kg was 310%. In series [2], the ED30 is 49 mg/kg. Also, in series [3], the LD50 at 168 h was above 5000 mg/kg.
Take `NS(=O)(=O)c1cc(C(=O)O)c(NCc2ccco2)cc1Cl` [Furosemide, reference compound]: in the series with rats, the response vs control in vivo at 5 mg/kg was determined as 133%.
Regarding `CN(C)C(=O)N1CCC(=NO)c2cc(Cl)ccc21` [XXII, 6-Chloro-4-oximino-1-dimethylcarbamoyl-1,2,3,4-tetrahydroquinoline], in series [1], the “Solubility in ethanol and dichloromethane” value was “soluble”; the “Solubility in water and hexane” value is reported as “Sparingly soluble”. In the series with rats, the response vs control in vivo at 10 mg/kg stood at 198% and the response vs control in vivo at 20 mg/kg was determined as 263%. Besides, the ED30 in series [2] was found to be 34 mg/kg. This molecule also yielded an LD50 at 168 h in series [3] above 5000 mg/kg.
For `CN(C)C(=O)N1CCC(=NO)c2cc(Br)ccc21` [XXIII, 6-Bromo-4-oximino-1-dimethylcarbamoyl-1,2,3,4-tetrahydroquinoline], in series [1], the “Solubility in ethanol and dichloromethane” value was “soluble”; the “Solubility in water and hexane” value is “Sparingly soluble”. The molecule also returned a response vs control in vivo at 50 mg/kg with rats of 200%. Moreover, in series [2], the ED30 turned out to be 51 mg/kg. The LD50 at 168 h in series [3] is above 5000 mg/kg.
Consider `CC(C)C(=O)N1CCC(=NO)c2cc(Cl)ccc21` [Compound IV, 6-Chloro-4-oximino-1-isobutyryl-1,2,3,4-tetrahydroquinoline], for which, in series [1], the “Solubility in methanol” value is recorded as “easily soluble”; the “Solubility in water and hexane” value was “Sparingly soluble”. This molecule registered a response vs control in vivo at 25 mg/kg in the series with rats (dosage 25 mg/kg) of 119%. In the series on rats, this molecule gave a response vs control in vivo at 50 mg/kg of 211%. Further, in series [2], the ED30 was found to be 87 mg/kg. The LD50 at 168 h in series [3] was above 5000 mg/kg.
In the case of `CCOC(=O)N1CCC(=NO)c2cc(F)ccc21` [Compound XII, 6-Fluoro-4-oximino-1-ethoxycarbonyl-1,2,3,4-tetrahydroquinoline], in series [1], the “Solubility in ethanol and dichloromethane” value is “soluble”; the “Solubility in water and hexane” value is given as “Sparingly soluble”. Moreover, in the series on rats, the response vs control in vivo at 10 mg/kg is 180% and the response vs control in vivo at 20 mg/kg amounted to 285%. For the same molecule, the ED30 in series [2] came out at 86 mg/kg. In series [3], this molecule came in with an LD50 at 168 h above 5000 mg/kg.
For the molecule `CCCCC(=O)N1CCC(=NO)c2cc(Cl)ccc21` [Compound V, 6-Chloro-4-oximino-1-valeryl-1,2,3,4-tetrahydroquinoline], in series [1], the “Solubility in methanol” value is on record as “easily soluble”; the “Solubility in water and hexane” value was “Sparingly soluble”. The molecule also returned a response vs control in vivo at 50 mg/kg in the series on rats of 209%. In addition, in series [2], the ED30 came to 140 mg/kg. The molecule further came in with an LD50 at 168 h in series [3] above 5000 mg/kg.
For `O=C(Cc1ccccc1)N1CCC(=NO)c2cc(Cl)ccc21` [Compound VII, 6-Chloro-4-oximino-1-phenylacetyl-1,2,3,4-tetrahydroquinoline], in that order: “easily soluble”, “Sparingly soluble”, 202%, 140 mg/kg and above 5000 mg/kg.
As to `CCCCC1C(=O)N(c2ccccc2)N(c2ccccc2)C1=O` [Phenylbutazone, reference compound], the ED30 in series [2] was 65 mg/kg. Besides, the “ED30 (dosage for 30% inhibition of edema)” value in series [2] (oral) came out at 63 mg/kg.

The record behind these values is patent publication US4440770A, “Diuretic, hypotensive and antiedemic quinoline oximes” (Mochida Seiyaku Kabushiki Kaisha, priority 1980, dated 1984).
